# Test results published in paper PMC11876601 (Molecular Systems Biology, 2025).
# Legend:
# Assay in all cases: cells
# [1] = tested on: MiaPaCa-2; set-up: ATPlite luminescence viability of PDAC cell lines, 11-dose single-agent curves, 4-parameter fit; conditions: Homo sapiens, MIA PaCa-2, 72 h, read-out: EC50 [nM]
# Procedure: (§1) Afterward, small amounts were transferred to 384-well intermediate plates (Greiner Bio-One GmbH, Germany). […] For drug combination screening, 1000 to 5000 cells were seeded into 384-well plates (CulturPlate™, Perkin Elmer, MA, USA) using a Multidrop™ Combi Reagent Dispenser (Thermo Scientific, MA, USA) in 50 µl medium per well 24 h prior to drug treatment (seeding densities see Appendix Table S1). […] The final DMSO concentration in each well was 0.2%. […] Eight wells per plate without library drug served as negative controls, and sixteen wells per plate containing 5 µM Staurosporine served as positive controls. […] Next, we analyzed the drug sensitivity of immortalized duct cell line HPDE to detect effects unrelated to pancreatic cancer.
# [2] = tested on: AsPC-1; set-up: Viability of PDAC cell lines, ATPlite luminescence, 11-dose single-agent curve fit; conditions: Homo sapiens, ASPC1, 72 h, read-out: EC50 [nM]
# Procedure: as §1
# [3] = tested on: Capan-1; set-up: Viability of PDAC cell lines, ATPlite luminescence, 11-dose single-agent curve fit; conditions: Homo sapiens, CAPAN-1, 72 h, read-out: EC50 [nM]
# Procedure: as §1
# [4] = tested on: Suit2-07; set-up: Viability of PDAC cell lines, ATPlite luminescence, 11-dose single-agent curve fit; conditions: 72 h, read-out: EC50 [nM]
# Procedure: as §1
# [5] = tested on: PSN-1; set-up: Viability of PDAC cell lines, ATPlite luminescence, 11-dose single-agent curve fit; conditions: Homo sapiens, PSN1, 72 h, read-out: EC50 [nM]
# Procedure: as §1
# [6] = tested on: BxPC-3; set-up: Viability of PDAC cell lines, ATPlite luminescence, 11-dose single-agent curve fit; conditions: Homo sapiens, BXPC-3, 72 h, read-out: EC50 [nM]
# Procedure: as §1
# [7] = tested on: HuP-T4; set-up: Viability of PDAC cell lines, ATPlite luminescence, 11-dose single-agent curve fit; conditions: Homo sapiens, HuP-T4, 72 h, read-out: EC50 [nM]
# Procedure: as §1
# [8] = tested on: PaTu-8988-T; set-up: Viability of PDAC cell lines, ATPlite luminescence, 11-dose single-agent curve fit; conditions: Homo sapiens, PaTu 8988t, 72 h, read-out: EC50 [nM]
# Procedure: as §1
# [9] = tested on: Colo-357; set-up: Viability of PDAC cell lines, ATPlite luminescence, 11-dose single-agent curve fit; conditions: Homo sapiens, COLO357, 72 h, read-out: EC50 [nM]
# Procedure: as §1
# [10] = tested on: HPDE; set-up: Viability of PDAC cell lines, ATPlite luminescence, 11-dose single-agent curve fit; conditions: HPDE, 72 h, read-out: EC50 [nM]
# Procedure: as §1
# [11] = tested on: Dan-G; set-up: Viability of PDAC cell lines, ATPlite luminescence, 11-dose single-agent curve fit; conditions: 72 h, read-out: EC50 [nM]
# Procedure: as §1
# [12] = tested on: FAMPAC; set-up: Viability of PDAC cell lines, ATPlite luminescence, 11-dose single-agent curve fit; conditions: 72 h, read-out: EC50 [nM]
# Procedure: as §1
# [13] = tested on: PANC-1; set-up: Viability of PDAC cell lines, ATPlite luminescence, 11-dose single-agent curve fit; conditions: Homo sapiens, PANC-1, 72 h, read-out: EC50 [nM]
# Procedure: as §1
smiles,measurement,setting,value
COc1ccc(CN2[C@@H]3C[C@H]2CN(c2ccc(-c4cc(OCC(C)(C)O)cn5ncc(C#N)c45)cn2)C3)cn1 [Selpercatinib],EC50,[1],2900 nM
same,EC50,[2],4660 nM
same,EC50,[3],> 10000 nM
same,EC50,[4],1160 nM
same,EC50,[5],> 10000 nM
same,EC50,[6],2980 nM
same,EC50,[7],72.1 nM
same,EC50,[8],543 nM
same,EC50,[9],4280 nM
same,EC50,[10],4930 nM
same,EC50,[11],6000 nM
same,EC50,[12],> 10000 nM
same,EC50,[13],3470 nM
Cc1cccc(-c2nn3c(c2-c2ccnc4ccc(C(N)=O)cc24)CCC3)n1 [Galunisertib],EC50,[2],72.9 nM
same,EC50,[3],151 nM
same,EC50,[4],3360 nM
same,EC50,[5],0.11 nM
same,EC50,[6],333 nM
same,EC50,[7],1480 nM
same,EC50,[8],98.7 nM
same,EC50,[9],302 nM
same,EC50,[10],230 nM
same,EC50,[11],47.4 nM
same,EC50,[12],155 nM
same,EC50,[13],60.8 nM
CC(C)(C)c1cc(NC(=O)Nc2ccc(-c3cn4c(n3)sc3cc(OCCN5CCOCC5)ccc34)cc2)no1 [Quizartinib],EC50,[1],1410 nM
same,EC50,[2],1530 nM
same,EC50,[3],1420 nM
same,EC50,[4],155 nM
same,EC50,[5],1470 nM
same,EC50,[6],1570 nM
same,EC50,[7],1020 nM
same,EC50,[8],96.7 nM
same,EC50,[9],61.4 nM
same,EC50,[10],2670 nM
same,EC50,[11],932 nM
same,EC50,[12],2490 nM
same,EC50,[13],515 nM
CN(C)C(=O)c1cc2cnc(Nc3ccc(N4CCNCC4)cn3)nc2n1C1CCCC1 [Ribociclib],EC50,[1],1280 nM
same,EC50,[2],6480 nM
same,EC50,[3],491 nM
same,EC50,[4],985 nM
same,EC50,[5],2250 nM
same,EC50,[6],227 nM
same,EC50,[7],1230 nM
same,EC50,[8],9690 nM
same,EC50,[9],1280 nM
same,EC50,[10],49.6 nM
same,EC50,[11],3080 nM
same,EC50,[12],401 nM
same,EC50,[13],> 10000 nM
